According to paper PMC7155171, “Probing the Open Global Health Chemical Diversity Library for Multistage-Active Starting Points for Next-Generation Antimalarials” (ACS Infectious Diseases, 2020):
Read-outs that look alike come from different tables or passages of the source.

Tests used:
[1] = tested on: P. falciparum Dd2; assay: SYBR green I asexual blood stage proliferation assay (96 h); type: cell-based, Plasmodium falciparum; conditions: Plasmodium falciparum
[2] = target: P. berghei liver stage (PbLuc); assay: P. berghei luciferase liver stage (PbLuc) assay in HepG2-A16-CD81 hepatocytes; type: cell-based, Plasmodium berghei; conditions: 48 h liver stage, HepG2-A16-CD81
[3] = target: recombinant firefly luciferase (Photinus pyralis, UniProt P08659); assay: biochemical; conditions: read-out: rLuc IC50
[4] = tested on: P. falciparum asexual blood stage (wild-type and DDD01061024-resistant Dd2-B2 clones); assay: Lactate dehydrogenase (LDH) asexual blood stage assay; type: cell-based, Plasmodium falciparum; conditions: Plasmodium falciparum, DD2, read-out: LDH ABS assay IC50
Description: Mutations within this site, and indeed at our V259L residue, were previously reported using other known cytochrome b inhibitors including ELQ400[49] and RYL-552.[50]
(§1) Figure S3. DDD01061024 is a cytochrome bc1 inhibitor.
The dual stage inhibitor, DDD01061024, is shown occupying the Q0 site (residues outlined in orange) of a Pf Cyt Bc1 homology model (from PDB: 1BE3) (a). A local V259L substitution (red) in mutant clones may destabilize the interactions within this pocket, helping resistant clones tolerate higher doses of the inhibitor (b). DDD01061024-resistannt mutants show cross-resistance to atovaquone (c), another multistage active antimalarial which targets the Q0 binding site. Dose dependent inhibition was determined using a metabolic endpoint (LDH) before normalizing to controls (n=2). Measuring the percentage of PbGFP infected hepatocytes using a high content imaging system validates the liver-stage potency of DDD01061024 in a fluorescence-based model (d). Infected hepatocytes were counted using luminescence-independent high content imaging in treated wells and normalized to controls over two replicates.
(1 picture or pasted object on this page, not shown here)

[5] = tested on: HepG2-A16-CD81 hepatocytes; assay: HepG2 cytotoxicity screening (CellTiter-Glo); conditions: HepG2-A16-CD81, read-out: HepG2 tox IC50
[6] = tested on: P. berghei-GFP (PbGFP) liver stage; assay: P. berghei-GFP liver stage high content imaging in Huh7.5.1 hepatocytes; type: cell-based; conditions: Plasmodium berghei, Huh-7.5.1, 48 h, read-out: liver stage high content imaging assay IC50
Procedure: For the fluorescent liver stage validation, roughly 2500 P. berghei-GFP (PbGFP) sporozoites[76] were dissected from mosquitoes provided by the NYU Insectary Core Facility and seeded onto a lawn of 5000 Huh7.5.1 hepatocytes in 384-well plates. These assay plates were pretreated with DDD01061024 in 8-point dose response (10–4.57 × 10^–3 μM), with atovaquone (0.5–3.91 × 10^–3 μM) and DMSO (0.5%) as positive and negative controls, respectively. Unlike our standard HepG2 cell line, these Huh7.5.1 cells lack GFP expression, making it preferable for these experiments. After a 48 h incubation in the presence of our test compounds, the presence of GFP positive infected cells were imaged and counted using the Operetta High-content Imaging System (PerkinElmer).
as §1
The dual stage inhibitor, DDD01061024, is shown occupying the Q0 site (residues outlined in orange) of a Pf Cyt Bc1 homology model (from PDB: 1BE3) (a). […] Dose dependent inhibition was determined using a metabolic endpoint (LDH) before normalizing to controls (n=2). Measuring the percentage of PbGFP infected hepatocytes using a high content imaging system validates the liver-stage potency of DDD01061024 in a fluorescence-based model (d). Infected hepatocytes were counted using luminescence-independent high content imaging in treated wells and normalized to controls over two replicates. […]

[7] = tested on: P. falciparum Dd2 (PfLuc) line expressing firefly luciferase, asexual blood stage; assay: microbe, parasite or virus in culture; type: cell-based, Plasmodium falciparum; conditions: for IC50 / Emax: Plasmodium falciparum

Chain of recombinant firefly luciferase (P08659 whole entry): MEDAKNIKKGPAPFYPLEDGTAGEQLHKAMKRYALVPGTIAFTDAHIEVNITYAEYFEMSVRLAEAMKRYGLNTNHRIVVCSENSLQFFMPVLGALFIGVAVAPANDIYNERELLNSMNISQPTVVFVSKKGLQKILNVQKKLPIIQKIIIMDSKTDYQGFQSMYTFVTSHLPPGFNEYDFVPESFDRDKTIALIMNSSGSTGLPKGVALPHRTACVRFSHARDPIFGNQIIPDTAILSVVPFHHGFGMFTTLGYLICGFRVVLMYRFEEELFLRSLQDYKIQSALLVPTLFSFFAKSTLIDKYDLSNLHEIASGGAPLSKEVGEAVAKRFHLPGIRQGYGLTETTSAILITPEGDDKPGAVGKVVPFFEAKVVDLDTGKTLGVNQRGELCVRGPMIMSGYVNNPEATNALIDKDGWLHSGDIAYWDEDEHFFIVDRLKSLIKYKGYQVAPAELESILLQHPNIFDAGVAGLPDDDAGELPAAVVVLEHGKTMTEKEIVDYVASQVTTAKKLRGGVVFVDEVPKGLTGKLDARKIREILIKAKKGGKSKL

With Cc1ccc(-c2ccc(C3CNCCO3)nc2)cc1 (centres unmarked) [DDD01061024] the Emax ([1]; DD2, Sybr Green I, 11-pt dose response, 96hr, read-out: CDD P. falciparum Sybr Green I ABS 11-pt Reconfirmation Dose Response (96hr): Maximum inhibition (%)) was 98.9%, the IC50 ([1]; 96 h, Dd2, read-out: 96 h SYBR green ABS IC50) was 344 nM and the “Pbluc (EEF) IC50” value [2] was “submicromolar”. The IC50 ([2]; Plasmodium berghei, HepG2-A16-CD81, 48 h, read-out: Pbluc (EEF) IC50) was < 0.141 nM, the IC50 [3] was 3.2 nM and the IC50 [4] was 521 nM. The IC50 [5] was > 50000 nM, the IC50 [6] was 375 nM and the IC50 ([7]; DD2, read-out: CDD P. falciparum Luciferase ABS 11-pt Reconfirmation Dose Response (48hr): IC50 (μM), 11-pt dose response, 48hr) was 0.533 µM. The IC50 ([7]; DD2, 8-pt dose response, 96hr, read-out: CDD P. falciparum Luciferase ABS 8-pt Reconfirmation Dose Response (96hr): IC50) was 0.2 µM, the Emax ([7]; DD2, 11-pt dose response, 48hr, read-out: CDD P. falciparum Luciferase ABS 11-pt Reconfirmation Dose Response (48hr): Maximum inhibition (%)) was 99.6% and the IC50 ([7]; DD2, 11-pt dose response, 96hr, read-out: CDD P. falciparum Luciferase ABS 11-pt Reconfirmation Dose Response (96hr): IC50) was 0.574 µM. For the same molecule, the Emax ([7]; DD2, 11-pt dose response, 96hr, read-out: CDD P. falciparum Luciferase ABS 11-pt Reconfirmation Dose Response (96hr): Maximum inhibition (%)) was 99.5% and the “ABS IC50” value ([7]; asexual blood stage, assay format not given) was “submicromolar”.
